In US6908927B2, “Pyridopyranoazepine derivatives, their preparation and their therapeutic application” (Sanofi-Synthelabo, priority 1999, dated 2005):
Where a name gives a salt, the structure may show the parent alone.

CCC1c2ncccc2OC2CCN3CCC21C3 (racemic) (as salt: HBr)
melting point: 170 °C (dec.)
